Two substances from patent US8680065B2, “Oligonucleotides of human endogenous retrovirus 9 (ERV-9) long terminal repeat (LTR) and methods of use” (The United States of America, as represented by the …, priority 2008, dated 2014) can be followed below.

Data set [1] has as its system HT1080 cells (a fibrosarcoma cell line). The experiment in a line: Cancer cell proliferation, oligonucleotide in LIPOFECTAMINE, 48 hours, direct cell counting. The settings on record: P<0.05. The class given is cell-based, human. The method, then:
FIG. 1 is a graph showing the effect of sense and antisense ERV-9 U3 oligonucleotides (SEQ ID NOs: 1 and 2, respectively) on proliferation of HT1080 cells (a fibrosarcoma cell line). Cells (4×10^4) were treated with ERV-9 U3 sense or antisense oligonucleotide formulated in LIPOFECTAMINE™ at the concentrations shown for 48 hours. Green fluorescent protein (GFP) sense oligonucleotide (SEQ ID NO: 3) was used as a control to measure the non-specific cytotoxicity of phosphorothioate-based oligonucleotides. Antisense oligonucleotides specific for Bcl-2 (G3139; SEQ ID NO: 4), telomerase (GRN163; SEQ ID NO: 5) and MDM2 (SEQ ID NO: 6) were also evaluated. Cell proliferation levels were expressed relative to cells transfected with 10 μg/ml GFP oligonucleotide.
To test the effect of the sense and antisense ERV-9 U3 oligonucleotides on proliferation of cancer cells, six different cancer cell lines were selected for transfection studies: HT1080, fibrosarcoma cells (FIG. 1); MDA-231, breast cancer cells (FIG. 2); K562, myelogenous leukemia cells (FIG. 3); LNcaP, prostate cancer cells (FIG. 4); HepG2, hepatocellular carcinoma cells (FIG. 5); and MCF-7, breast cancer cells (FIG. 6). Cells (4×10^4) were treated with ERV-9 U3 sense or antisense oligonucleotide formulated in LIPOFECTAMINE™ at an oligonucleotide concentration of 10, 20 or 30 μg/ml for 48 hours. Green fluorescent protein (GFP) sense oligonucleotide ([…]; SEQ ID NO: 3) was used as a control to measure the non-specific cytotoxicity of phosphorothioate-based oligonucleotides. Antisense oligonucleotides specific for Bcl-2 (G3139; TCTCCCAGCGTGCGCCAT; SEQ ID NO: 4), telomerase (GRN163; TAGGGTTAGACAA; SEQ ID NO: 5), and MDM2 ([…]; SEQ ID NO: 6) were also evaluated. […] After 48 hours of oligonucleotide treatment, cell proliferation was assessed by direct cell counting. Cell proliferation levels were expressed relative to cells transfected with 10 μg/ml GFP control oligonucleotide.

In data set [2] the test system is LNcaP cells. Nature of the data set: Cancer cell proliferation, oligonucleotide in combination with VP16, 48 hours. The class given is cell-based, human. The settings on record: oligonucleotide 15 μg/ml with VP16 30 ng/ml and 50 ng/ml. The method, then: FIG. 10 is a graph showing proliferation of LNcaP cells treated with ERV-9 U3 sense or antisense oligonucleotide (SEQ ID NOs: 1 and 2, respectively), in combination with VP16. Cells (4×10^4) were treated with oligonucleotide (15 μg/ml) alone or in combination with the concentrations of VP16 shown for 48 hours.
(§1) To test the effect of treating cancer cells with the combination of ERV-9 U3 oligonucleotide and VP16, six different cancer cell lines were analyzed: HT1080, (FIG. 7); MDA-231 (FIG. 8); K562 (FIG. 9); LNcaP (FIG. 10); HepG2 (FIG. 11); and MCF-7 (FIG. 12). Cells (4×10^4) were treated with 15 μg/ml ERV-9 U3 sense (SEQ ID NO: 1) or antisense (SEQ ID NO: 2) oligonucleotide alone or in combination with VP16 at a concentration of 30 ng/ml or 50 ng/ml. After 48 hours, cell proliferation was assessed by direct cell counting. Cell proliferation levels were expressed relative to GFP oligonucleotide control in the absence of VP16.

The test system of data set [3] is human primary cells (keratinocytes, lymphocytes, monocytes). Nature of the data set: Proliferation of normal human primary cells, Example 3, summary. The class given is cell-based. To be noted: 20 μg/ml, 48 hours. The method, then: (§2) To determine whether the inhibitory effect of ERV-9 U3 oligonucleotides is specific to cancer cells, human primary keratinocytes (FIG. 13), lymphocytes (FIG. 14), or monocytes (FIG. 15) were treated with ERV-9 U3 sense or antisense oligonucleotide and cell proliferation was evaluated. Cells (4×10^4) were transfected with ERV-9 U3 sense or antisense oligonucleotide (SEQ ID NOs: 1 and 2, respectively) formulated in LIPOFECTAMINE™ at a concentration of 20 μg/ml. GFP oligonucleotide was used as non-specific phosphorothioate oligonucleotide control. After 48 hours, cell proliferation was assessed by direct cell counting. Cell proliferation levels were expressed relative to GFP control.

Data set [4] has as its system HepG2 cells (a hepatocellular carcinoma cell line). Nature of the data set: Cancer cell proliferation, oligonucleotide in LIPOFECTAMINE, 48 hours, direct cell counting. The class given is cell-based, human. To be noted: oligonucleotide 10, 20 or 30 μg/ml, P<0.05. The method, then: FIG. 5 is a graph showing the effect of sense and antisense ERV-9 U3 oligonucleotides (SEQ ID NOs: 1 and 2, respectively) on proliferation of HepG2 cells (a hepatocellular carcinoma cell line). Cells (4×10^4) were treated with ERV-9 U3 sense or antisense oligonucleotide formulated in LIPOFECTAMINE™ at the concentrations shown for 48 hours.
To test the effect of the sense and antisense ERV-9 U3 oligonucleotides on proliferation of cancer cells, six different cancer cell lines were selected for transfection studies: HT1080, fibrosarcoma cells (FIG. 1); MDA-231, breast cancer cells (FIG. 2); K562, myelogenous leukemia cells (FIG. 3); LNcaP, prostate cancer cells (FIG. 4); HepG2, hepatocellular carcinoma cells (FIG. 5); and MCF-7, breast cancer cells (FIG. 6). Cells (4×10^4) were treated with ERV-9 U3 sense or antisense oligonucleotide formulated in LIPOFECTAMINE™ at an oligonucleotide concentration of 10, 20 or 30 μg/ml for 48 hours. […] Antisense oligonucleotides specific for Bcl-2 (G3139; TCTCCCAGCGTGCGCCAT; SEQ ID NO: 4), telomerase (GRN163; TAGGGTTAGACAA; SEQ ID NO: 5), and MDM2 ([…]; SEQ ID NO: 6) were also evaluated. […] After 48 hours of oligonucleotide treatment, cell proliferation was assessed by direct cell counting. […]

In data set [5] the test system is MDA-231 cells (a breast cancer cell line). The data set is described as above. The class given is cell-based, human. The settings on record: oligonucleotide 10, 20 or 30 μg/ml, P<0.05.
The subject of data set [6] is human primary keratinocytes. Nature of the data set: Proliferation of normal human primary cells, 48 hours. The class given is cell-based. The settings on record: 20 μg/ml, P>0.05. The method, then: FIG. 13 is a graph showing the effect of ERV-9 U3 sense and antisense oligonucleotides (SEQ ID NOs: 1 and 2, respectively) on human primary keratinocytes. Cells (4×10^4) were transfected with ERV-9 U3 sense or antisense oligonucleotide formulated in LIPOFECTAMINE™ at a concentration of 20 μg/ml for 48 hours. GFP oligonucleotide was used as non-specific phosphorothioate oligonucleotide control.
as §2

For data set [7], the system named is human primary lymphocytes. The description is as above. The class given is cell-based. The settings on record: 20 μg/ml, P>0.05. The method, then: FIG. 14 is a graph showing the effect of ERV-9 U3 sense and antisense oligonucleotides (SEQ ID NOs: 1 and 2, respectively) on human primary lymphocytes. Cells (4×10^4) were transfected with ERV-9 U3 sense or antisense oligonucleotide formulated in LIPOFECTAMINE™ at a concentration of 20 μg/ml for 48 hours.
as §2

Data set [8] deals with MCF-7 cells. Nature of the data set: Cancer cell proliferation, oligonucleotide in combination with VP16, 48 hours. Type of data set: cell-based, human. To be noted: oligonucleotide 15 μg/ml with VP16 30 ng/ml and 50 ng/ml, P<0.05. The method, then:
FIG. 12 is a graph showing proliferation of MCF-7 cells treated with ERV-9 U3 sense or antisense oligonucleotide (SEQ ID NOs: 1 and 2, respectively), in combination with VP16. Cells (4×10^4) were treated with oligonucleotide (15 μg/ml) alone or in combination with the concentrations of VP16 shown for 48 hours.
as §1

The test system of data set [9] is HT1080, MDA-231, K562, LNcaP, HepG2 and MCF-7 cancer cell lines. The experiment in a line: Cancer cell proliferation, Example 2, summary over six cancer cell lines, alone or with VP16. Type of data set: cell-based, human. The settings on record: for proliferation relative to GFP control oligonucleotide: each of six cancer cell lines, oligonucleotide 15 μg/ml, 48 hours; for proliferation compared with Bcl-2, telomerase and MDM2-specific antisense oligonucleotides: six cancer cell lines, alone or with VP16, in most instances. The method, then:
as §1

Setting [10] is: oligonucleotide 20 μg/ml and 30 μg/ml.

Regarding “U3S: ERV-9 LTR U3 sense oligonucleotide CTCAAGGTTTGTAAACACACCAATCAG, phosphorothioate internucleoside linkages at each position (all phosphorothioate, sugars by position and methylation of C not given here) [Oligo U3S]”, the “cell proliferation relative to GFP oligonucleotide” value was “inhibited cell proliferation better than GFP oligonucleotide” in data set [1] (oligonucleotide 10 μg/ml); “inhibited cell proliferation better than GFP control and G3139, GRN163 and MDM2 antisense oligonucleotides” in [1] (setting [10]); “inhibited cell proliferation better than GFP control and G3139, GRN163 and MDM2 antisense oligonucleotides at all three concentration levels” in data set [4]; “inhibited cell proliferation better than GFP control oligonucleotide at all three oligonucleotide concentrations” in data set [5]. Further, the “cell proliferation relative to GFP oligonucleotide control” value is “inhibited cell proliferation better than GFP oligonucleotide” in [2]; “inhibited cell proliferation better than GFP control and G3139, GRN163 and MDM2 antisense oligonucleotides” in [8]. In addition, the “cell proliferation of human primary cells relative to control GFP oligonucleotide” value in [3] is given as “neither U3 sense nor antisense oligonucleotides had an effect on the proliferation of human primary cells”; in data set [3] (listed as ERV-9 U3 sense oligonucleotide), “did not significantly alter cell proliferation of human primary cells, relative to control GFP oligonucleotide”. In addition, the “cell proliferation relative to control GFP oligonucleotide” value in data set [6] and in data set [7] was “did not inhibit cell proliferation relative to control GFP oligonucleotide” in each case. In addition, in [9], the “proliferation relative to GFP control oligonucleotide” value was “resulted in a significant decrease in proliferation of each cancer cell line tested, relative to GFP control oligonucleotide”. In data set [9], the “proliferation compared with Bcl-2, telomerase and MDM2-specific antisense oligonucleotides” value was “inhibited proliferation to a greater extent than the Bcl-2, telomerase and MDM2-specific antisense oligonucleotides, either alone or in combination with VP16”.

In the case of “U3AS: ERV-9 LTR U3 antisense oligonucleotide CTGATTGGTGTGTTTACAAACCTTGAG, phosphorothioate internucleoside linkages at each position (all phosphorothioate, sugars by position and methylation of C not given here) [Oligo U3AS]”, the “cell proliferation relative to GFP oligonucleotide” value was “inhibited cell proliferation better than GFP oligonucleotide” in data set [1] (oligonucleotide 10 μg/ml); “inhibited cell proliferation better than GFP control and G3139, GRN163 and MDM2 antisense oligonucleotides” in data set [1] (setting [10]); “inhibited cell proliferation better than GFP control and G3139, GRN163 and MDM2 antisense oligonucleotides at all three concentration levels” in data set [4]; “inhibited cell proliferation better than GFP control oligonucleotide at all three oligonucleotide concentrations” in data set [5]. For the same substance, the “cell proliferation relative to GFP oligonucleotide control” value in data set [2] is “inhibited cell proliferation better than GFP oligonucleotide”; in data set [8] it was “inhibited cell proliferation better than GFP control and G3139, GRN163 and MDM2 antisense oligonucleotides”. Also, the “cell proliferation of human primary cells relative to control GFP oligonucleotide” value in data set [3] is on record as “neither U3 sense nor antisense oligonucleotides had an effect on the proliferation of human primary cells”; in data set [3] (listed as ERV-9 U3 antisense oligonucleotide), “did not significantly alter cell proliferation of human primary cells, relative to control GFP oligonucleotide”. The “cell proliferation relative to control GFP oligonucleotide” value in [6] and in [7] was “did not inhibit cell proliferation relative to control GFP oligonucleotide” each time. Moreover, in [9], the “proliferation relative to GFP control oligonucleotide” value is reported as “resulted in a significant decrease in proliferation of each cancer cell line tested, relative to GFP control oligonucleotide”. Also, in data set [9], the “proliferation compared with Bcl-2, telomerase and MDM2-specific antisense oligonucleotides” value was “inhibited proliferation to a greater extent than the Bcl-2, telomerase and MDM2-specific antisense oligonucleotides, either alone or in combination with VP16”.
